Assay results as given in patent publication US12466829B2, “Spirocyclic piperidine melanocortin subtype-2 receptor (MC2R) antagonists and uses thereof” (Crinetics Pharmaceuticals, Inc., priority 2019, dated 2025).

biological target: T1, hMC2 receptor (Homo sapiens, UniProt Q01718); assay: hMC2 membrane binding assay ([125I]ACTH (1-39) Tyr23, SPA); conditions: crude membranes of CRE-bla-CHO-K1 cells expressing hMC2 receptor and hMRAP; 0.2 nM [125I]ACTH (1-39) Tyr23; 1.5 hours at room temperature; read-out: MC2R binding potency
T1 construct: host or cells: CRE-bla-CHO-K1 cells
T1 sequence (Q01718 whole entry): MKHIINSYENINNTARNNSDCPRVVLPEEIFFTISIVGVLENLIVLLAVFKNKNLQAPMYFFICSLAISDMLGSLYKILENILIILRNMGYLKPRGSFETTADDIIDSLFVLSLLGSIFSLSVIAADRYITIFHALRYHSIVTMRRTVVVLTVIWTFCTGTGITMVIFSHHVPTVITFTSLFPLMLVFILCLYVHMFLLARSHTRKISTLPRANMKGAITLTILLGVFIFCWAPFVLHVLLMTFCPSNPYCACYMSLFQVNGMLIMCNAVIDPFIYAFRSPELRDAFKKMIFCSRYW
T1 sequence (Q8TCY5 whole entry partner): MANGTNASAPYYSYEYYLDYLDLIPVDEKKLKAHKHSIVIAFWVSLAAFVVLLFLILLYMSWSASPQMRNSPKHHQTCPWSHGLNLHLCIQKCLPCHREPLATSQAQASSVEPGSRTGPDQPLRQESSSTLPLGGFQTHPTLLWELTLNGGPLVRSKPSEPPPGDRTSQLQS
Procedure: Crude membrane fractions are prepared from CRE-bla-CHO-K1 cells stably expressing hMC2 receptor and hMRAP accessory protein (Thermo Fisher). The cells are grown to 85-100% confluence on standard tissue culture dishes in GlutaMax DMEM growth media (Gibco) with following additives: 10% dialyzed FBS (Gemini), 0.1 mM NEAA (Gibco), 25 mM HEPES (Gibco), 5 μg/mL blasticidin (Goldbio), 100 μg/mL zeocin (Invitrogen), 600 μg/mL hygromycin (Goldbio). To prepare membranes, cells are scraped and collected in 1× Dulbecco's phosphate buffered saline (Corning) and then pelleted at 1000 RPM's. The cell pellet is reconstituted in membrane preparation buffer (20 mM HEPES, 6 mM MgCl2 and 1 mM EGTA, protease inhibitor tablets (Pierce) adjusted to pH 7.4), homogenized using a dounce homogenizer, and the resulting membrane fraction is pelleted by centrifugation at 12,000 RPM's. The membrane pellet is resuspended in membrane preparation buffer, snap freezed and stored at −80° C. for later use.
The hMC2 membrane binding assay utilizes the following components: radiolabel [^125I]ACTH (1-39) Tyr23 (PerkinElmer), wheatgerm agglutinin coated PVT SPA beads (PerkinElmer), crude hMC2R membranes, and compounds. Briefly hMC2R membranes are incubated with SPA beads in binding assay buffer (50 mM HEPES, 5 mM MgCl2, 1 mM CaCl2), 0.2% BSA, protease inhibitor tablets (Pierce) adjusted to pH7.4) prior to assay initiation. […] Assay plates are read using a Top Count NXT and Ki values for compounds are determined using a GraphPad Prism 6 non-linear regression analysis.

| Ki | Structure (SMILES) |
| --- | --- |
| 10 to 100 nM | CCOc1ncccc1-c1ccc2c(n1)N([C@H]1CCNC1)CC21CCN(c2ccc(C(F)(F)F)cc2C#N)CC1 [1-53, 2-[6′-(2-ethoxypyridin-3-yl)-1′-[(3S)-pyrrolidin-3-yl]-1′,2′-dihydrospiro[piperidine-4,3′-pyrrolo[2,3-b]pyridin]-1-yl]-5-(trifluoromethyl)benzonitrile] |
| < 10 nM | CCOc1ncccc1-c1ccc2c(n1)N(CCCN)CC21CCN(c2ccc(C(F)(F)F)cc2C#N)CC1 [1-54, 2-[1′-(3-aminopropyl)-6′-(2-ethoxypyridin-3-yl)-1′,2′-dihydrospiro[piperidine-4,3′-pyrrolo[2,3-b]pyridin]-1-yl]-5-(trifluoromethyl)benzonitrile] |
| < 10 nM | CCOc1ncccc1-c1ccc2c(n1)N(C(=O)NCCN)CC21CCN(c2ccc(C(F)(F)F)cc2C#N)CC1 [1-55, N-(2-aminoethyl)-1-[2-cyano-4-(trifluoromethyl)phenyl]-6′-(2-ethoxypyridin-3-yl)-1′,2′-dihydrospiro[piperidine-4,3′-pyrrolo[2,3-b]pyridine]-1′-carboxamide] |
| 10 to 100 nM | CCOc1ncccc1-c1ccc2c(n1)N(C(=O)NC[C@H](C)N)CC21CCN(c2ccc(C(F)(F)F)cc2C#N)CC1 [1-56, N-[(2S)-2-aminopropyl]-1-[2-cyano-4-(trifluoromethyl)phenyl]-6′-(2-ethoxypyridin-3-yl)-1′,2′-dihydrospiro[piperidine-4,3′-pyrrolo[2,3-b]pyridine]-1′-carboxamide] |
| 10 to 100 nM | CCOc1ncccc1-c1ccc2c(n1)N(C(=O)N[C@@H]1CCNC1)CC21CCN(c2ccc(C(F)(F)F)cc2C#N)CC1 [1-57, 1-[2-cyano-4-(trifluoromethyl)phenyl]-6′-(2-ethoxypyridin-3-yl)-N-[(3R)-pyrrolidin-3-yl]-1′,2′-dihydrospiro[piperidine-4,3′-pyrrolo[2,3-b]pyridine]-1′-carboxamide] |
| < 10 nM | CCOc1ncccc1-c1ccc2c(n1)N(C(=O)CCN(C)C)CC21CCN(c2ccc(C(F)(F)F)cc2C#N)CC1 [1-58, 2-{1′-[3-(dimethylamino)propanoyl]-6′-(2-ethoxypyridin-3-yl)-1′,2′-dihydrospiro[piperidine-4,3′-pyrrolo[2,3-b]pyridin]-1-yl}-5-(trifluoromethyl)benzonitrile] |
| < 10 nM | CCOc1ncccc1-c1ccc2c(n1)N(C(=O)NCCNC)CC21CCN(c2ccc(C(F)(F)F)cc2C#N)CC1 [1-59, 1-[2-cyano-4-(trifluoromethyl)phenyl]-6′-(2-ethoxypyridin-3-yl)-N-[2-(methylamino)ethyl]-1′,2′-dihydrospiro[piperidine-4,3′-pyrrolo[2,3-b]pyridine]-1′-carboxamide] |
| < 10 nM | CCOc1ncccc1-c1ccc2c(n1)N(CCN)C(=O)C21CCN(c2ccc(C(F)(F)F)cc2C#N)CC1 [1-60, 2-[1′-(2-aminoethyl)-6′-(2-ethoxypyridin-3-yl)-2′-oxo-1′,2′-dihydrospiro[piperidine-4,3′-pyrrolo[2,3-b]pyridin]-1-yl]-5-(trifluoromethyl)benzonitrile] |
| < 10 nM | CCOc1ncccc1-c1ccc2c(n1)N(C[C@@H](C)N)C(=O)C21CCN(c2ccc(C(F)(F)F)cc2C#N)CC1 [1-61, 2-{1′-[(2R)-2-aminopropyl]-6′-(2-ethoxypyridin-3-yl)-2′-oxo-1′,2′-dihydrospiro[piperidine-4,3′-pyrrolo[2,3-b]pyridin]-1-yl}-5-(trifluoromethyl)benzonitrile] |
| < 10 nM | CCOc1ncccc1-c1ccc2c(n1)N(CCN(C)C)C(=O)C21CCN(c2ccc(C(F)(F)F)cc2C#N)CC1 [1-62, 2-{1′-[2-(dimethylamino)ethyl]-6′-(2-ethoxypyridin-3-yl)-2′-oxo-1′,2′-dihydrospiro[piperidine-4,3′-pyrrolo[2,3-b]pyridin]-1-yl}-5-(trifluoromethyl)benzonitrile] |
| < 10 nM | CCOc1ncccc1-c1ccc2c(n1)N(CCNC)C(=O)C21CCN(c2ccc(C(F)(F)F)cc2C#N)CC1 [1-63, 2-[6′-(2-ethoxypyridin-3-yl)-1′-[2-(methylamino)ethyl]-2′-oxo-1′,2′-dihydrospiro[piperidine-4,3′-pyrrolo[2,3-b]pyridin]-1-yl]-5-(trifluoromethyl)benzonitrile] |
| < 10 nM | CCOc1ncccc1-c1ccc2c(c1)N(CCN)C(=O)NC21CCN(c2ccc(C(F)(F)F)cc2C#N)CC1 [1-64, 2-[1′-(2-aminoethyl)-7′-(2-ethoxypyridin-3-yl)-2′-oxo-2′,3′-dihydro-1′H-spiro[piperidine-4,4′-quinazolin]-1-yl]-5-(trifluoromethyl)benzonitrile] |
| < 10 nM | CCOc1ncccc1-c1ccc2c(c1)N(CCNC)C(=O)NC21CCN(c2ccc(C(F)(F)F)cc2C#N)CC1 [1-65, 2-[7′-(2-ethoxypyridin-3-yl)-1′-[2-(methylamino)ethyl]-2′-oxo-2′,3′-dihydro-1′H-spiro[piperidine-4,4′-quinazolin]-1-yl]-5-(trifluoromethyl)benzonitrile] |
| 10 to 100 nM | CCOc1ncccc1-c1ccc2c(c1)N(CCN)C(=O)CC21CCN(c2ccc(C(F)(F)F)cc2C#N)CC1 [1-66, 2-[1′-(2-aminoethyl)-7′-(2-ethoxypyridin-3-yl)-2′-oxo-2′,3′-dihydro-1′H-spiro[piperidine-4,4′-quinolin]-1-yl]-5-(trifluoromethyl)benzonitrile] |
| 10 to 100 nM | CCOc1ncccc1-c1ccc2c(c1)N(C[C@H](C)N)C(=O)CC21CCN(c2ccc(C(F)(F)F)cc2C#N)CC1 [1-68, 2-{1′-[(2S)-2-aminopropyl]-7′-(2-ethoxypyridin-3-yl)-2′-oxo-2′,3′-dihydro-1′H-spiro[piperidine-4,4′-quinolin]-1-yl}-5-(trifluoromethyl)benzonitrile] |
| 10 to 100 nM | CCOc1ncccc1-c1ccc2c(c1)N(CCNC)C(=O)CC21CCN(c2ccc(C(F)(F)F)cc2C#N)CC1 [1-69, 2-[7′-(2-ethoxypyridin-3-yl)-1′-[2-(methylamino)ethyl]-2′-oxo-2′,3′-dihydro-1′H-spiro[piperidine-4,4′-quinolin]-1-yl]-5-(trifluoromethyl)benzonitrile] |
| 10 to 100 nM | CCOc1ncccc1-c1ccc2c(c1)N(C[C@@H](C)N)C(=O)CC21CCN(c2ccc(C(F)(F)F)cc2C#N)CC1 [1-70, 2-{1′-[(2R)-2-aminopropyl]-7′-(2-ethoxypyridin-3-yl)-2′-oxo-2′,3′-dihydro-1′H-spiro[piperidine-4,4′-quinolin]-1-yl}-5-(trifluoromethyl)benzonitrile] |
